Laboratory results from patent publication US11912693B2, “Compounds for modulating S1P1 activity and methods of using the same” (TREVENA, INC., priority 2017, dated 2024).

What was measured:
[1] = biological target: T1, human sphingosine-1-phosphate receptor 1 (S1P1) (Homo sapiens (Human), UniProt P21453); assay: Inhibition of cAMP production (HTRF cAMP HiRange), S1P1 CHO-K1 cells; type: cell-based; details: for Emax: CHO-K1, read-out: hS1P1 cAMP SPAN; for hS1P1 cAMP pEC50: inhibition of cAMP production, S1P1 CHO-K1 cells
Method: (§1) Stable clonal Chinese hamster ovary K1 (CHO-K1) cells co-expressing EA-β-arrestin2 and the human sphingosine-1-phosphate receptor 1 (NM_001400, S1P1) with a C-terminal Prolink™ tag were purchased from DiscoverX corporation (Cat #: 93-0207C2).
(§2) Cell lines were cultured in AssayComplete™ Media 6 (DiscoverX Corporation, Cat #: 920018GF2) at 37° C. and 5% CO2 in a humidified CO2 and temperature-controlled incubator. To begin assay plating, cells were washed with dulbecco's phosphate buffered saline (CellGro, Cat #: 21-031-CV) and lifted from the culturing flask by incubation (37° C., 5 min) with CellStripper (Cellgro, Cat #: 25-056-CI). […] Plated cells were incubated overnight at 37° C. and 5% CO2 in a humidified CO2 and temperature-controlled incubator. Detecting Inhibition of cAMP Production
Agonist-promoted G-protein responses were determined by measuring changes in intracellular cAMP using the HTRF® cAMP HiRange kit (CisBio, Cat #: 62AM6PEJ) based on time-resolved fluorescence resonance energy transfer (TR-FRET) technology. […] Following a 30-minute incubation at 37° C. and 5% CO2 in a humidified CO2 and temperature-controlled incubator, the components of the cAMP HiRange kit were added as per the manufacturer's instructions. After an hour incubation at room temperature, plates were analyzed by a BMG PheraStar microplate reader.
(§3) The tables below include the efficacy of the compound as compared to a positive control, referred to as “SPAN”. These values are normalized to fingolimod, a known agonist of the sphingosine-1-phosphate 1 receptor. The tables also include potency values (pEC50) for modulating discrete receptor-mediated activities (inhibition of cAMP production and […] recruitment).
Target sequence in this assay (P21453 whole entry, looked up): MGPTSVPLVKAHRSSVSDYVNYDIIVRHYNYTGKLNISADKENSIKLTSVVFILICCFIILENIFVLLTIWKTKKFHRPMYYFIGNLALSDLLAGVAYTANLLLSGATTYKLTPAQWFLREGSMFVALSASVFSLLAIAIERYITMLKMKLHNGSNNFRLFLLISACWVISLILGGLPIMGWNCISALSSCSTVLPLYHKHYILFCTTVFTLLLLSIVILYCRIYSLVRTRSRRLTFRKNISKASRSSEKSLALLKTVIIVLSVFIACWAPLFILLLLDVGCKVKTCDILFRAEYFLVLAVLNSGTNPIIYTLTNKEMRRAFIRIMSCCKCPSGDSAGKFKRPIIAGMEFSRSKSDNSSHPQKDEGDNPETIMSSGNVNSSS

[2] = biological target: T1, human sphingosine-1-phosphate receptor 1 (S1P1); assay: β-Arrestin2 recruitment assay (PathHunter), S1P1 CHO-K1 cells; type: cell-based; details: for Emax: CHO-K1, read-out: hS1P1 B-arrestin2 SPAN; for hS1P1 B-arrestin2 pEC50: β-arrestin2 recruitment, S1P1 CHO-K1 cells
Method: as §1, §2
Target sequence in this assay (P21453 whole entry, looked up): as above
Target sequence in this assay (P32121 whole entry partner, looked up): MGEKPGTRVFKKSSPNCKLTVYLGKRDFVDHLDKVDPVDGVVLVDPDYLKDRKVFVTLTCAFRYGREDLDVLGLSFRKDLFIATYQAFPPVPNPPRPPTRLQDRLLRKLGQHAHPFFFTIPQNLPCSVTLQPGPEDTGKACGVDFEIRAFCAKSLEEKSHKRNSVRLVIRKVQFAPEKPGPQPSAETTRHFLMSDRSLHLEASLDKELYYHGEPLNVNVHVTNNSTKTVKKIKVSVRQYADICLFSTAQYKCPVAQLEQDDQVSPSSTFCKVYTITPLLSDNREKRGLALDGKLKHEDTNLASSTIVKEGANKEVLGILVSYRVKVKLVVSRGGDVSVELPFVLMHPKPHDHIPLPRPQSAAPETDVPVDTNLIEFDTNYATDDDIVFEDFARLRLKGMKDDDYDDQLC
Agonist-promoted β-arrestin2 recruitment to the sphingosine-1-phosphate 1 receptor was determined using the β-arrestin PathHunter®) Detection kit (DiscoverX Corporation, Cat #: 93-0001). […] In cells that stably express these fusion proteins, stimulation with a cognate agonist results in the interaction of […] and the Prolink™-tagged GPCR. This allows the complementation of the two β-galactosidase fragments and results in the formation of a functional enzyme with β-galactosidase activity. […] Following a 60 minute incubation at 37° C. and 5% CO2 in a humidified CO2 and temperature-controlled incubator, the components of the β-arrestin PathHunter® Detection kit were added as per the manufacturer's instructions. After an hour incubation at room temperature, plates were analyzed by a BMG PheraStar microplate reader.
as §3

[3] = efficacy (SPAN) normalized to fingolimod

Structure (SMILES) | Emax [1, 3] [%] | hS1P1 cAMP pEC50 [1] | Emax [2, 3] [%] | hS1P1 B-arrestin2 pEC50 [2] | hS1P1 cAMP SPAN [1, 3] | hS1P1 B-arrestin2 SPAN [2, 3]
CC(C)n1nnc2cc(-c3nc(-c4ccc5nncn5c4)no3)ccc21 [Compound 128, 1-(propan-2-yl)-5-(3-{[1,2,4]triazolo[4,3-a]pyridin-6-yl}-1,2,4-oxadiazol-5-yl)-1H-1,2,3-benzotriazole] | < 75 | <6.5 | < 75 | <5 |  | 
CCCC1(CCC)CC(=O)c2cc(-c3nc(-c4cccnc4)no3)ccc2O1 [Compound 218, 2,2-dipropyl-6-[3-(pyridin-3-yl)-1,2,4-oxadiazol-5-yl]-3,4-dihydro-2H-1-benzopyran-4-one] |  | <6.5 |  | <5 |  | 
CCOP(=O)(Cc1ccc(-c2noc(-c3ccc4c(c3)nnn4C(C)C)n2)cc1)OCC [Compound 583, diethyl [(4-{5-[1-(propan-2-yl)-1H-1,2,3-benzotriazol-5-yl]-1,2,4-oxadiazol-3-yl}phenyl)methyl]phosphonate] |  |  |  |  | <75 | <75
COc1ccc(-c2nc(-c3ccc4c(ccn4C(C)C)c3)no2)cc1 [Compound 393, 3-(1-isopropyl-1H-indol-5-yl)-5-(4-methoxyphenyl)-1,2,4-oxadiazole] |  | <6.5 |  | <5 |  | 
CCCn1nnc2cc(-c3nc(-c4ccncc4)no3)ccc21 [Compound 205, 1-propyl-5-[3-(pyridin-4-yl)-1,2,4-oxadiazol-5-yl]-1H-1,2,3-benzotriazole] | > 75 | <6.5 | < 75 | <5 |  | 
CC(C)n1nnc2cc(-c3nc(-c4cncnc4)no3)ccc21 [Compound 249, 1-(propan-2-yl)-5-[3-(pyrimidin-5-yl)-1,2,4-oxadiazol-5-yl]-1H-1,2,3-benzotriazole] |  | <6.5 |  | <5 |  | 
CC(C)n1nnc2cc(-c3nc(Cc4ccccc4)no3)ccc21 [Compound 88, 5-(3-benzyl-1,2,4-oxadiazol-5-yl)-1-(propan-2-yl)-1H-1,2,3-benzotriazole] | < 75 | <6.5 | < 75 | <5 |  | 
CCC1(CC)CC(=O)c2cc(-c3nc(-c4cccc(OC)n4)no3)ccc2O1 [Compound 553, 2,2-diethyl-6-[3-(6-methoxypyridin-2-yl)-1,2,4-oxadiazol-5-yl]-3,4-dihydro-2H-1-benzopyran-4-one] |  | <6.5 |  | >5 |  | 
CC(C)n1ncc2cc(-c3nc(-c4cccc5c4OCO5)no3)ccc21 [Compound 336, 3-(benzo[d][1,3]dioxol-4-yl)-5-(1-isopropyl-1H-indazol-5-yl)-1,2,4-oxadiazole] | > 75 | >6.5 | < 75 | >5 |  | 
COc1ccc(-c2nc(-c3ccc4c(c3)nnn4C(C)(C)CO)no2)c(C)c1 [Compound 610, 2-(5-(5-(4-methoxy-2-methylphenyl)-1,2,4-oxadiazol-3-yl)-1H-benzo[d][1,2,3]triazol-1-yl)-2-methylpropan-1-ol] |  | <6.5 |  | <5 |  | 
Cc1cc(C)cc(-c2noc(-c3ccc4c(c3)nnn4C(C)C)n2)c1 [Compound 204, 5-[3-(3,5-dimethylphenyl)-1,2,4-oxadiazol-5-yl]-1-(propan-2-yl)-1H-1,2,3-benzotriazole] | > 75 | <6.5 | > 75 | >5 |  | 
COCCn1cc(-c2ccccc2C)cc1-c1ccc2c(c1)nnn2C(C)C [Compound 534, 5-[1-(2-methoxyethyl)-4-(2-methylphenyl)-1H-pyrrol-2-yl]-1-(propan-2-yl)-1H-1,2,3-benzotriazole] | < 75 | <6.5 | < 75 | <5 |  | 
CC(C)n1nnc2cc(-c3cc(-c4ccccc4F)c[nH]3)ccc21 [Compound 542, 5-[4-(2-fluorophenyl)-1H-pyrrol-2-yl]-1-(propan-2-yl)-1H-1,2,3-benzotriazole] |  | <6.5 |  | >5 |  | 
COc1ccccc1-c1csc(-c2cnc3c(ccn3C(C)C)c2)n1 [Compound 401, 2-(1-isopropyl-1H-pyrrolo[2,3-b]pyridin-5-yl)-4-(2-methoxyphenyl)thiazole] |  | <6.5 |  | <5 |  | 
COC(=O)CCn1nnc2cc(-c3noc(-c4ccccc4Br)n3)ccc21 [Compound 161, methyl 3-(5-(5-(2-bromophenyl)-1,2,4-oxadiazol-3-yl)-1H-benzo[d][1,2,3]triazol-1-yl)propanoate] |  | <6.5 |  | <5 |  | 
CC(C)n1nnc2cc(-c3noc(C4CCC(F)(F)CC4)n3)ccc21 [Compound 125, 5-[5-(4,4-difluorocyclohexyl)-1,2,4-oxadiazol-3-yl]-1-(propan-2-yl)-1H-1,2,3-benzotriazole] | < 75 | <6.5 | < 75 | <5 |  | 

Now from value to compound, other results behind:

Emax [1, 3] [%] | hS1P1 cAMP pEC50 [1] | Emax [2, 3] [%] | hS1P1 B-arrestin2 pEC50 [2] | Structure (SMILES) | hS1P1 cAMP SPAN [1, 3] | hS1P1 B-arrestin2 SPAN [2, 3]
> 75 | >6.5 | > 75 | >5 | CC(C)n1ncc2cc(-c3nc(-c4ccccc4OC(F)(F)F)no3)ccc21 [Compound 331, 5-(1-isopropyl-1H-indazol-5-yl)-3-(2-(trifluoromethoxy)phenyl)-1,2,4-oxadiazole] |  | 
< 75 | <6.5 | < 75 | <5 | COc1ccc(-c2noc(-c3ccc4c(c3)nnn4C(C)C)n2)c2ccccc12 [Compound 129, 5-[3-(4-methoxynaphthalen-1-yl)-1,2,4-oxadiazol-5-yl]-1-(propan-2-yl)-1H-1,2,3-benzotriazole] |  | 
> 75 | >6.5 | > 75 | >5 | CC(C)n1nnc2cc(-c3nc(-c4ccccc4N)co3)ccc21 [Compound 438, 2-{2-[1-(propan-2-yl)-1H-1,2,3-benzotriazol-5-yl]-1,3-oxazol-4-yl}aniline] |  | 
< 75 | <6.5 | > 75 | <5 | CC(C)(O)Cn1nnc2cc(-c3nc(-c4ccc5nc[nH]c5c4)no3)ccc21 [Compound 501, 1-{5-[3-(1H-1,3-benzodiazol-6-yl)-1,2,4-oxadiazol-5-yl]-1H-1,2,3-benzotriazol-1-yl}-2-methylpropan-2-ol] |  | 
 | <6.5 |  | <5 | COc1ccc(-c2nsc(-c3ccc4[nH]ccc4c3)n2)cc1 [Compound 363, 5-[3-(4-methoxyphenyl)-1,2,4-thiadiazol-5-yl]-1H-indole] |  | 
< 75 | <6.5 | < 75 | <5 | CNc1ccccc1-c1coc(-c2ccc3c(c2)nnn3C(C)C)n1 [Compound 587, N-methyl-2-{2-[1-(propan-2-yl)-1H-1,2,3-benzotriazol-5-yl]-1,3-oxazol-4-yl}aniline] |  | 
> 75 | >6.5 | > 75 | >5 | CCC1(CC)CC(=O)c2cc(-c3nc(-c4ccc(O)cc4)no3)ccc2O1 [Compound 72, 2,2-diethyl-6-[3-(4-hydroxyphenyl)-1,2,4-oxadiazol-5-yl]chroman-4-one] |  | 
< 75 | <6.5 | < 75 | <5 | CC(C)n1nnc2cc(-c3noc(-c4ccc(C5CCCCC5)cc4)n3)ccc21 [Compound 290, 5-(4-cyclohexylphenyl)-3-(1-isopropyl-1H-benzo[d][1,2,3]triazol-5-yl)-1,2,4-oxadiazole] |  | 
 | <6.5 |  | <5 | CCC1(CC)CC(=O)c2cc(-c3nc(-c4cccnc4O)no3)ccc2O1 [Compound 258, 2,2-diethyl-6-(3-(2-hydroxypyridin-3-yl)-1,2,4-oxadiazol-5-yl)chroman-4-one] |  | 
 | <6.5 |  | <5 | COc1ccccc1-c1c[nH]c(-c2ccc3c(c2)nnn3C(C)C)c1 [Compound 566, 5-[4-(2-methoxyphenyl)-1H-pyrrol-2-yl]-1-(propan-2-yl)-1H-1,2,3-benzotriazole] |  | 
